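Briefly, cells in 96-well plates were exposed to five compound concentrations for 48 h, and endpoints were estimated by linear interpolation. TGI denotes the concentration required for complete inhibition of growth.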
How the values were obtained:
Experiment in all cases: NCI tumour cell line growth inhibition, 48 h
SNB-78 CNS = test system: SNB-78 CNS
U251 CNS = test system: U251 CNS
NCI-H226 lung = test system: NCI-H226 lung
A549 NSCLC = test system: A549 NSCLC
HT29 colon = test system: HT29 colon
NCI-H460 lung = test system: NCI-H460 lung
SF-295 CNS = test system: SF-295 CNS
MALME-3M melanoma = test system: MALME-3M melanoma
KM20L2 colon = test system: KM20L2 colon
RPMI-8226 leukemia = test system: RPMI-8226 leukemia
UACC-257 melanoma = test system: UACC-257 melanoma
OVCAR-4 ovarian = test system: OVCAR-4 ovarian
HCT-116 colon = test system: HCT-116 colon
SF-268 CNS = test system: SF-268 CNS
UACC-62 melanoma = test system: UACC-62 melanoma
OVCAR-5 ovarian = test system: OVCAR-5 ovarian
MOLT-4 leukemia = test system: MOLT-4 leukemia
SK-OV-3 ovarian = test system: SK-OV-3 ovarian
NCI/ADR-RES ovarian = test system: NCI/ADR-RES ovarian
HOP-62 NSCLC = test system: HOP-62 NSCLC
XF 498 CNS = test system: XF 498 CNS
OVCAR-8 ovarian = test system: OVCAR-8 ovarian
K-562 leukemia = test system: K-562 leukemia
M19-MEL melanoma = test system: M19-MEL melanoma
MCF7 breast = test system: MCF7 breast
HCC-2998 colon = test system: HCC-2998 colon
DMS 114 small cell lung = test system: DMS 114 small cell lung
HOP-18 NSCLC = test system: HOP-18 NSCLC
RXF 393 renal = test system: RXF 393 renal
DMS 273 small cell lung = test system: DMS 273 small cell lung
NCI-H23 lung = test system: NCI-H23 lung
SK-MEL-28 melanoma = test system: SK-MEL-28 melanoma
KM12 colon = test system: KM12 colon
SK-MEL-5 melanoma = test system: SK-MEL-5 melanoma
LOX IMVI melanoma = test system: LOX IMVI melanoma
UO-31 renal = test system: UO-31 renal
P388/ADR leukemia = test system: P388/ADR leukemia
SW-620 colon = test system: SW-620 colon
CAKI-1 renal = test system: CAKI-1 renal
SK-MEL-2 melanoma = test system: SK-MEL-2 melanoma
HOP-92 NSCLC = test system: HOP-92 NSCLC
P388 leukemia = test system: P388 leukemia
HL-60(TB) leukemia = test system: HL-60(TB) leukemia
SN12C renal = test system: SN12C renal
OVCAR-3 ovarian = test system: OVCAR-3 ovarian
NCI-H522 lung = test system: NCI-H522 lung
SF-539 CNS = test system: SF-539 CNS
COLO 205 colon = test system: COLO 205 colon
SNB-19 CNS = test system: SNB-19 CNS
TK-10 renal = test system: TK-10 renal
SR leukemia = test system: SR leukemia
ACHN renal = test system: ACHN renal
786-0 renal = test system: 786-0 renal
LXFL 529 NSCLC = test system: LXFL 529 NSCLC
M14 melanoma = test system: M14 melanoma
DLD-1 colon = test system: DLD-1 colon
RXF-631 renal = test system: RXF-631 renal
IGROV1 ovarian = test system: IGROV1 ovarian
HCT-15 colon = test system: HCT-15 colon
SNB-75 CNS = test system: SNB-75 CNS
A498 renal = test system: A498 renal
EKVX NSCLC = test system: EKVX NSCLC
CCRF-CEM leukemia = test system: CCRF-CEM leukemia

Structure (SMILES): COC1=C(C)C(=O)C2=C(C1=O)[C@@H]1[C@@H]3Cc4c(OC(=O)CO)c(C)c(OC)c(O)c4[C@H](CNC(=O)C(C)=O)N3[C@@H](C#N)[C@H](C2)N1C
- TGI (SNB-78 CNS): 0.998 µM
- TGI (U251 CNS): 4.09 µM
- TGI (NCI-H226 lung): 0.834 µM
- TGI (A549 NSCLC): 49 µM
- TGI (HT29 colon): 10.6 µM
- TGI (NCI-H460 lung): 1.83 µM
- TGI (SF-295 CNS): 2.28 µM
- TGI (MALME-3M melanoma): 0.351 µM
- TGI (KM20L2 colon): 0.686 µM
- TGI (RPMI-8226 leukemia): 0.389 µM
- TGI (UACC-257 melanoma): 0.0364 µM
- TGI (OVCAR-4 ovarian): 0.484 µM
- TGI (HCT-116 colon): 12.1 µM
- TGI (SF-268 CNS): 0.208 µM
- TGI (UACC-62 melanoma): < 0.0368 µM
- TGI (OVCAR-5 ovarian): 0.447 µM
- TGI (MOLT-4 leukemia): 0.173 µM
- TGI (SK-OV-3 ovarian): 28.6 µM
- TGI (NCI/ADR-RES ovarian): 17.1 µM
- TGI (HOP-62 NSCLC): 1.16 µM
- TGI (XF 498 CNS): < 0.01 µM
- TGI (OVCAR-8 ovarian): 0.684 µM
- TGI (K-562 leukemia): 7.77 µM
- TGI (M19-MEL melanoma): 0.0463 µM
- TGI (MCF7 breast): 13.9 µM
- TGI (HCC-2998 colon): 0.226 µM
- TGI (DMS 114 small cell lung): < 0.01 µM
- TGI (HOP-18 NSCLC): 0.0966 µM
- TGI (RXF 393 renal): 0.0392 µM
- TGI (DMS 273 small cell lung): 0.065 µM
- TGI (NCI-H23 lung): < 0.0176 µM
- TGI (SK-MEL-28 melanoma): 1.2 µM
- TGI (KM12 colon): 2.05 µM
- TGI (SK-MEL-5 melanoma): 0.0393 µM
- TGI (LOX IMVI melanoma): < 0.01 µM
- TGI (UO-31 renal): 0.362 µM
- TGI (P388/ADR leukemia): 1.82 µM
- TGI (SW-620 colon): 3.24 µM
- TGI (CAKI-1 renal): 7.87 µM
- TGI (SK-MEL-2 melanoma): 0.0359 µM
- TGI (HOP-92 NSCLC): < 0.0258 µM
- TGI (P388 leukemia): 0.0205 µM
- TGI (HL-60(TB) leukemia): 2.75 µM
- TGI (SN12C renal): 10.8 µM
- TGI (OVCAR-3 ovarian): 0.0366 µM
- TGI (NCI-H522 lung): < 0.0139 µM
- TGI (SF-539 CNS): 0.24 µM
- TGI (COLO 205 colon): < 0.0309 µM

Structure (SMILES): CCCCCCCCCCC(=O)CC(=O)c1c(O)cccc1O
- TGI (SNB-78 CNS): > 100 µM
- TGI (U251 CNS): 69.5 µM
- TGI (NCI-H226 lung): 63.6 µM
- TGI (A549 NSCLC): > 100 µM
- TGI (HT29 colon): > 100 µM
- TGI (NCI-H460 lung): > 100 µM
- TGI (SNB-19 CNS): > 100 µM
- TGI (SF-295 CNS): > 100 µM
- TGI (MALME-3M melanoma): > 100 µM
- TGI (KM20L2 colon): > 100 µM
- TGI (RPMI-8226 leukemia): 50.2 µM
- TGI (TK-10 renal): > 100 µM
- TGI (UACC-257 melanoma): 96 µM
- TGI (SR leukemia): > 100 µM
- TGI (ACHN renal): 91.3 µM
- TGI (OVCAR-4 ovarian): > 100 µM
- TGI (HCT-116 colon): 41.8 µM
- TGI (786-0 renal): > 100 µM
- TGI (SF-268 CNS): > 100 µM
- TGI (UACC-62 melanoma): > 100 µM
- TGI (OVCAR-5 ovarian): 49.1 µM
- TGI (LXFL 529 NSCLC): > 100 µM
- TGI (MOLT-4 leukemia): 59 µM
- TGI (SK-OV-3 ovarian): > 100 µM
- TGI (HOP-62 NSCLC): 72.9 µM
- TGI (XF 498 CNS): 46.2 µM
- TGI (OVCAR-8 ovarian): > 100 µM
- TGI (K-562 leukemia): 81.3 µM
- TGI (M19-MEL melanoma): 67.1 µM
- TGI (HCC-2998 colon): > 100 µM
- TGI (DMS 114 small cell lung): 72 µM
- TGI (HOP-18 NSCLC): 98.7 µM
- TGI (RXF 393 renal): 72.5 µM
- TGI (M14 melanoma): > 100 µM
- TGI (DLD-1 colon): > 100 µM
- TGI (DMS 273 small cell lung): 58.2 µM
- TGI (RXF-631 renal): > 100 µM
- TGI (NCI-H23 lung): 81.7 µM
- TGI (IGROV1 ovarian): > 100 µM
- TGI (SK-MEL-28 melanoma): > 100 µM
- TGI (KM12 colon): > 100 µM
- TGI (SK-MEL-5 melanoma): 72.8 µM
- TGI (LOX IMVI melanoma): 37 µM
- TGI (UO-31 renal): 85.9 µM
- TGI (SW-620 colon): > 100 µM
- TGI (CAKI-1 renal): > 100 µM
- TGI (HOP-92 NSCLC): 82 µM
- TGI (HCT-15 colon): > 100 µM
- TGI (SNB-75 CNS): > 100 µM
- TGI (HL-60(TB) leukemia): 37.3 µM
- TGI (SN12C renal): > 100 µM
- TGI (OVCAR-3 ovarian): 63.7 µM
- TGI (NCI-H522 lung): 90.4 µM
- TGI (SF-539 CNS): > 100 µM
- TGI (A498 renal): > 100 µM
- TGI (COLO 205 colon): > 100 µM
- TGI (EKVX NSCLC): > 100 µM

Structure (SMILES): O=S1c2ccccc2N=C(c2cccc3ccccc23)CC1c1cccc2ccccc12 (stereo not drawn)
- TGI (SNB-78 CNS): > 100 µM
- TGI (U251 CNS): 37.7 µM
- TGI (NCI-H226 lung): 42.2 µM
- TGI (A549 NSCLC): 36.7 µM
- TGI (HT29 colon): 49.5 µM
- TGI (NCI-H460 lung): 40.6 µM
- TGI (SNB-19 CNS): 66.7 µM
- TGI (SF-295 CNS): 71.2 µM
- TGI (MALME-3M melanoma): 37.4 µM
- TGI (KM20L2 colon): > 100 µM
- TGI (RPMI-8226 leukemia): 50.9 µM
- TGI (TK-10 renal): 89.3 µM
- TGI (UACC-257 melanoma): 31.2 µM
- TGI (SR leukemia): 49.2 µM
- TGI (ACHN renal): 56.4 µM
- TGI (OVCAR-4 ovarian): 27.8 µM
- TGI (HCT-116 colon): 39.3 µM
- TGI (786-0 renal): 76.6 µM
- TGI (SF-268 CNS): 57.5 µM
- TGI (UACC-62 melanoma): 26.4 µM
- TGI (OVCAR-5 ovarian): 58.3 µM
- TGI (LXFL 529 NSCLC): 33.6 µM
- TGI (MOLT-4 leukemia): 55.3 µM
- TGI (CCRF-CEM leukemia): 49.1 µM
- TGI (SK-OV-3 ovarian): > 100 µM
- TGI (HOP-62 NSCLC): > 100 µM
- TGI (XF 498 CNS): 37.5 µM
- TGI (OVCAR-8 ovarian): 46.3 µM
- TGI (K-562 leukemia): 60.5 µM
- TGI (M19-MEL melanoma): 4.33 µM
- TGI (HCC-2998 colon): 31.8 µM
- TGI (DMS 114 small cell lung): 34.8 µM
- TGI (HOP-18 NSCLC): 25.2 µM
- TGI (RXF 393 renal): 38.7 µM
- TGI (M14 melanoma): 28.1 µM
- TGI (DLD-1 colon): 62.8 µM
- TGI (DMS 273 small cell lung): > 100 µM
- TGI (RXF-631 renal): > 100 µM
- TGI (NCI-H23 lung): 39.1 µM
- TGI (IGROV1 ovarian): 34 µM
- TGI (SK-MEL-28 melanoma): 20.6 µM
- TGI (KM12 colon): 32 µM
- TGI (SK-MEL-5 melanoma): 19.9 µM
- TGI (LOX IMVI melanoma): 27.9 µM
- TGI (UO-31 renal): 67.8 µM
- TGI (SW-620 colon): 37.5 µM
- TGI (CAKI-1 renal): 71.2 µM
- TGI (SK-MEL-2 melanoma): 40.9 µM
- TGI (HCT-15 colon): 32 µM
- TGI (SNB-75 CNS): 49.1 µM
- TGI (HL-60(TB) leukemia): 30.5 µM
- TGI (SN12C renal): 30.5 µM
- TGI (OVCAR-3 ovarian): 40.5 µM
- TGI (NCI-H522 lung): 30 µM
- TGI (SF-539 CNS): 40.6 µM
- TGI (A498 renal): 39.2 µM
- TGI (COLO 205 colon): 37.6 µM
- TGI (EKVX NSCLC): 84.1 µM
